Data reported in US8772353B2, “Method for enhancing the bioavalability of ospemifene” (Hormos Medical Ltd., priority 2004, dated 2014).
Like-named read-outs stand apart in the source and are kept apart here.

Tests used:
[1] = Study A: bioavailability of ospemifene after high caloric, high-fat breakfast versus fasted condition; conditions: for effect of food intake on bioavailability: 60 mg ospemifene tablet, single oral dose, high caloric (860 kcal), high-fat meal versus fasted, serum
Method: Blood samples for pharmacokinetic assessments were drawn during 72 hours at each study period. A washout period between the two treatments was at least 2 weeks. […] The meal provided approximately 150, 170 and 540 kcal from protein, carbohydrate and fat, respectively.

[2] = 60 mg ospemifene tablet, single oral dose, low caloric (300 kcal), low-fat meal versus fasted, serum
Method: The composition of the light breakfast (approximately 300 kcal) was as follows: two slices of toast with margarine (5 g, fat content 60%), 6 slices (30 g) of cucumber, 240 ml skimmed (non-fat) milk and 100 ml orange juice. The test meal provided approximately 50, 180 and 70 kcal from protein, carbohydrate and fat, respectively.

[3] = cited from earlier work
[4] = cited from earlier work; remark: listed apart in the source
[5] = Anttila M., 1997; cited from earlier work

SMILES: OCCOc1ccc(/C(=C(/CCCl)c2ccccc2)c2ccc(O)cc2)cc1 [4-hydroxy-ospemifene, 4-hydroxyospemifene]
- effect of food intake on bioavailability [1]: substantial effect

SMILES: OCCOc1ccc(/C(=C(/CCCl)c2ccccc2)c2ccccc2)cc1 [ospemifene]
- effect of food intake on bioavailability [2]: enhanced
- aqueous solubility [3]: low aqueous solubility
- tolerability ([4]; in vivo): excellent tolerability
- bioavailability ([4]; oral administration): rather low
- effect of food intake on bioavailability [1]: enhanced
- effect of food intake on ospemifene absorption (increase) ([1]; oral, food intake versus fasted): 2-3 fold

SMILES: CN(C)CCOc1ccc(/C(=C(/CCCl)c2ccccc2)c2ccccc2)cc1 [toremifene]
- effect of food intake on absorption [5]: retarded the absorption
- effect of food intake on bioavailability [5]: did not have any positive effect
- aqueous solubility [3]: low aqueous solubility
